According to article PMC6254361, “The properties of Msh2–Msh6 ATP binding mutants suggest a signal amplification mechanism in DNA mismatch repair” (The Journal of Biological Chemistry, 2018):

Molecular target: T1, Msh2–Msh6 (Saccharomyces cerevisiae, UniProt P25847+Q03834, P25847:K694A)
T1 sequence (P25847 1-964 K694A): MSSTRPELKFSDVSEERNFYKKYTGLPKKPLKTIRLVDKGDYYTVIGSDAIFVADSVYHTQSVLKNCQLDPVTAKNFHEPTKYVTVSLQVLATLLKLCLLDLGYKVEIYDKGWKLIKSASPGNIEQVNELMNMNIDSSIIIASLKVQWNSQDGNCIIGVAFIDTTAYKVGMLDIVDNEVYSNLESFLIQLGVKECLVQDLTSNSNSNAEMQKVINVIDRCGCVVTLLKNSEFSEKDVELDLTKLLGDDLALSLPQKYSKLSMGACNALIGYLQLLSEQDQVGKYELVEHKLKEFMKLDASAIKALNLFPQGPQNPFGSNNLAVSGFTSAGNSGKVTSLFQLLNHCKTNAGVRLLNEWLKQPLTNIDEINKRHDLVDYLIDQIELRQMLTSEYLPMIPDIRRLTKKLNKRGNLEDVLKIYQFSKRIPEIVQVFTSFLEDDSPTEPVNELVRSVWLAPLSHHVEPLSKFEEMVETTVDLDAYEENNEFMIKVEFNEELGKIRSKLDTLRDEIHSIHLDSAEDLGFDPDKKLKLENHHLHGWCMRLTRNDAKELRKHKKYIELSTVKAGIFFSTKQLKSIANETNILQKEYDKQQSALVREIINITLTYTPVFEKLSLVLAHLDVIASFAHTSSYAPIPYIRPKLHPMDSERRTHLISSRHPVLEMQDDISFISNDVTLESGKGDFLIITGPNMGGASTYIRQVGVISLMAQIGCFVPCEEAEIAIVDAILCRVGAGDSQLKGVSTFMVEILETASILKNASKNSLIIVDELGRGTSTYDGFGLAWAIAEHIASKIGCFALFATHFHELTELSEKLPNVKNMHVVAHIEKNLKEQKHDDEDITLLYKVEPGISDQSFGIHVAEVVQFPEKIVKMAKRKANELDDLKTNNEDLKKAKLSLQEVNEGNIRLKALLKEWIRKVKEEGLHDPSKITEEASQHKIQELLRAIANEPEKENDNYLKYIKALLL
T1 sequence (Q03834 1-1242): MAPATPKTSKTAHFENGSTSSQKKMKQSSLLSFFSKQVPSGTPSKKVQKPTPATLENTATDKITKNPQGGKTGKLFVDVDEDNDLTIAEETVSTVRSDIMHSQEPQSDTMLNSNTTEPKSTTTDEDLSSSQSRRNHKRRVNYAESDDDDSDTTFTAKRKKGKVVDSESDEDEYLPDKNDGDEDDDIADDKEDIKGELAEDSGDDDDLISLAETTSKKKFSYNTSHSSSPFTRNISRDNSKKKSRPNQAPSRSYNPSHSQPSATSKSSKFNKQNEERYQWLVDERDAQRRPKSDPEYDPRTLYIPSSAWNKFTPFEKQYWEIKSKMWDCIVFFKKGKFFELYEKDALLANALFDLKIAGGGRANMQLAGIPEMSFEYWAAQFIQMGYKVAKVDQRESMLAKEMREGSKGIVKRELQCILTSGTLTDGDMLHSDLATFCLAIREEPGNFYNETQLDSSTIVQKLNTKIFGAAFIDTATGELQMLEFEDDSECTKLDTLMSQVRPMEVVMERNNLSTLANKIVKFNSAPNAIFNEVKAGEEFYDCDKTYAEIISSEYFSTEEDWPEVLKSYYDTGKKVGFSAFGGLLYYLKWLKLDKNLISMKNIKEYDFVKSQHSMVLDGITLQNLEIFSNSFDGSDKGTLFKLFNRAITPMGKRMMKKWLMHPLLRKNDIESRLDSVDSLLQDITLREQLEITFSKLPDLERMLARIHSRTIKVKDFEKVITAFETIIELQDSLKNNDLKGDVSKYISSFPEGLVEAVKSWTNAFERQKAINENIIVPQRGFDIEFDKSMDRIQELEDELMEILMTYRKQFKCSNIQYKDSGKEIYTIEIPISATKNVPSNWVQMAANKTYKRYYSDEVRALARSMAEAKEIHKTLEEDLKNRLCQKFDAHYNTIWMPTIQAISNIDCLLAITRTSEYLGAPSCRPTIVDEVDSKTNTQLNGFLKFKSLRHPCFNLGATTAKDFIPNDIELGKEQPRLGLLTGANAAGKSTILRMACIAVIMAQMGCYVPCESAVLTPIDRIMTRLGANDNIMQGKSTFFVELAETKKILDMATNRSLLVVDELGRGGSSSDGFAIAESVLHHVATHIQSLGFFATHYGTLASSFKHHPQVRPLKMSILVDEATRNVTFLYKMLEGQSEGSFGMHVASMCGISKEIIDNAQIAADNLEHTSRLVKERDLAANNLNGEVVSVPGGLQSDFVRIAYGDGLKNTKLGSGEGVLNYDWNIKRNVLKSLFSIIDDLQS
Experiment: UV cross-linking of [γ-32P]ATP, SDS-PAGE, phosphorimaging
Type: binding
Conditions: labelled compound; no Mg2+, EDTA, pH 8, on ice; Msh2 site at 60 μM ATP, Msh6 site at 1 μM ATP

With `Nc1ncnc2c1ncn2[C@@H]1O[C@H](COP(=O)(O)OP(=O)(O)OP(=O)(O)O)[C@@H](O)[C@H]1O` [ATP] the “relative ATP binding” value was “Msh2(K694A)–Msh6 and Msh2(K694R)–Msh6 mutant complexes were defective for ATP binding to both”.
